Results as given in ChEMBL document CHEMBL5528047, “A Potent SOS1 PROTAC Degrader with Synergistic Efficacy in Combination with KRASG12C Inhibitor” (J Med Chem, 2024).

Experiments:
[1] = biological target: T1, von Hippel-Lindau disease tumor suppressor/Son of sevenless homolog 1 (Homo sapiens, UniProt Q07889+P40337); test: Protac activity at VHL/SOS1 in human PANC-1 cells assessed as SOS1 degradation at 10 uM by Western blotting analysis relative to control; assay type: cell-based
Target sequence in this assay (P40337 whole entry, looked up): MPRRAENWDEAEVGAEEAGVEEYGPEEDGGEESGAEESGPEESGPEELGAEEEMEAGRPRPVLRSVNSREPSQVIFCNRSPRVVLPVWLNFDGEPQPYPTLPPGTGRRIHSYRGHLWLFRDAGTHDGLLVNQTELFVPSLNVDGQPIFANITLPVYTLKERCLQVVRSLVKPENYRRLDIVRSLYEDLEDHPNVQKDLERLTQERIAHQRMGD
Target sequence in this assay (Q07889 whole entry, looked up): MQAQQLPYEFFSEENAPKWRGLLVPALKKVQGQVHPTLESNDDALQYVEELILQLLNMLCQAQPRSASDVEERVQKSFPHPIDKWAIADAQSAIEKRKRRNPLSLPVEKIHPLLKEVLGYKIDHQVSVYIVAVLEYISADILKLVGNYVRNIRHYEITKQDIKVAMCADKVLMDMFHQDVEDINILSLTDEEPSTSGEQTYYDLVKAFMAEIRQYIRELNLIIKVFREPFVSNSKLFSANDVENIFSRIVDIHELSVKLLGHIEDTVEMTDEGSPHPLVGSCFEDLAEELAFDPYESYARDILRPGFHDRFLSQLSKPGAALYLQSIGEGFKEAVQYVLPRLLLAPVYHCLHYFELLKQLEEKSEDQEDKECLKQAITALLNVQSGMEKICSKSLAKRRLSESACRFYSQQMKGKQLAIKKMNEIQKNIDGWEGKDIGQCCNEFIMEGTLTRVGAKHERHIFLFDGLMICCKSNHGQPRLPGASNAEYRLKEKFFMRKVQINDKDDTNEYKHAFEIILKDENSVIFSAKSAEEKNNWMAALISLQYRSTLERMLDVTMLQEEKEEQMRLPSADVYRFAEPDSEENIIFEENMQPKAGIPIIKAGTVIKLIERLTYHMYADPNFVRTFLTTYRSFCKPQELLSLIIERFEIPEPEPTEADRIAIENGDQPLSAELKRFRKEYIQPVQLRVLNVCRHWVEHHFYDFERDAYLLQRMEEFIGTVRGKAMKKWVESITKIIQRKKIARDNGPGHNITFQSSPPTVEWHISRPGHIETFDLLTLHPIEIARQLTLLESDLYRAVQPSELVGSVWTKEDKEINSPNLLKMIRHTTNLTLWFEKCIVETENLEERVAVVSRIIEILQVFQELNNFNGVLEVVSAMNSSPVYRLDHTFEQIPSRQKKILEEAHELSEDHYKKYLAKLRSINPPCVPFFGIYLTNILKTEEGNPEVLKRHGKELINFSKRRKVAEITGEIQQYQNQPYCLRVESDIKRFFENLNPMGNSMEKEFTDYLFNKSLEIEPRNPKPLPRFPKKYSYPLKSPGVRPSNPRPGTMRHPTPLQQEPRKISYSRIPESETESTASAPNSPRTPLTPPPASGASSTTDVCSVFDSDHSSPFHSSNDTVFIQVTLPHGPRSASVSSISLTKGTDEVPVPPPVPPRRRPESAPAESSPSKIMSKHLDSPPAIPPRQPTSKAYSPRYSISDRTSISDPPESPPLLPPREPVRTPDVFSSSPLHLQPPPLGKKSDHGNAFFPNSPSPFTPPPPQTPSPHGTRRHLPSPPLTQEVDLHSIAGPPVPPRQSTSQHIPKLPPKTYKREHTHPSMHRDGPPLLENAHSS

[2] = biological target: T1, von Hippel-Lindau disease tumor suppressor/Son of sevenless homolog 1; test: Protac activity at VHL/SOS1 in human K562 cells assessed as SOS1 degradation at 1 uM by Western blotting analysis relative to control; assay type: cell-based
Target sequence in this assay (P40337 whole entry, looked up): as the sequence (P40337 whole entry, looked up) above
Target sequence in this assay (Q07889 whole entry, looked up): as the sequence (Q07889 whole entry, looked up) above

[3] = biological target: T1, von Hippel-Lindau disease tumor suppressor/Son of sevenless homolog 1; test: Protac activity at VHL/SOS1 in human K562 cells assessed as SOS1 degradation at 10 uM by Western blotting analysis relative to control; assay type: cell-based
Target sequence in this assay (P40337 whole entry, looked up): as the sequence (P40337 whole entry, looked up) above
Target sequence in this assay (Q07889 whole entry, looked up): as the sequence (Q07889 whole entry, looked up) above

[4] = biological target: T1, von Hippel-Lindau disease tumor suppressor/Son of sevenless homolog 1; test: Protac activity at VHL/SOS1 in human PANC-1 cells assessed as SOS1 degradation at 1 uM by Western blotting analysis relative to control; assay type: cell-based
Target sequence in this assay (P40337 whole entry, looked up): as the sequence (P40337 whole entry, looked up) above
Target sequence in this assay (Q07889 whole entry, looked up): as the sequence (Q07889 whole entry, looked up) above

[5] = biological target: T2, Protein cereblon/Son of sevenless homolog 1 (Homo sapiens) (UniProt Q07889+Q96SW2); test: Protac activity at CRBN/SOS1 in human K562 cells assessed as SOS1 degradation at 1 uM by Western blotting analysis relative to control; assay type: cell-based
[6] = biological target: T2, Protein cereblon/Son of sevenless homolog 1 (Homo sapiens); test: Protac activity at CRBN/SOS1 in human PANC-1 cells assessed as SOS1 degradation at 1 uM by Western blotting analysis; assay type: cell-based
[7] = biological target: T2, Protein cereblon/Son of sevenless homolog 1 (Homo sapiens); test: Protac activity at CRBN/SOS1 in human PANC-1 cells assessed as SOS1 degradation at 10 uM by Western blotting analysis relative to control; assay type: cell-based
[8] = biological target: T2, Protein cereblon/Son of sevenless homolog 1 (Homo sapiens); test: Protac activity at CRBN/SOS1 in human K562 cells assessed as SOS1 degradation at 10 uM by Western blotting analysis relative to control; assay type: cell-based
[9] = biological target: T1, von Hippel-Lindau disease tumor suppressor/Son of sevenless homolog 1; test: Protac activity at VHL/SOS1 in human MIA PaCa-2 cells assessed as SOS1 degradation incubated for 24 hrs by Western blotting analysis; assay type: cell-based
[10] = biological target: T1, von Hippel-Lindau disease tumor suppressor/Son of sevenless homolog 1; test: Protac activity at VHL/SOS1 in human PANC-1 cells assessed as SOS1 degradation incubated for 24 hrs by Western blotting analysis; assay type: cell-based
[11] = biological target: T1, von Hippel-Lindau disease tumor suppressor/Son of sevenless homolog 1; test: Protac activity at VHL/SOS1 in human NCI-H358 cells assessed as SOS1 degradation incubated for 24 hrs by Western blotting analysis; assay type: cell-based
[12] = biological target: T1, von Hippel-Lindau disease tumor suppressor/Son of sevenless homolog 1; test: Protac activity at VHL/SOS1 in human K562 cells assessed as SOS1 degradation incubated for 24 hrs by Western blotting analysis; assay type: cell-based
MIA PaCa-2 = test: Antiproliferative activity against human MIA PaCa-2 cells incubated for 72 hrs by CCK8 assay; assay type: functional, cell-based; details: MIA PaCa-2, 72 h
K562 = test: Antiproliferative activity against human K562 cells incubated for 72 hrs by CCK8 assay; assay type: functional, cell-based; details: K562, 72 h

T2 sequence (Q07889 whole entry, looked up): as above
T2 sequence (Q96SW2 whole entry, looked up): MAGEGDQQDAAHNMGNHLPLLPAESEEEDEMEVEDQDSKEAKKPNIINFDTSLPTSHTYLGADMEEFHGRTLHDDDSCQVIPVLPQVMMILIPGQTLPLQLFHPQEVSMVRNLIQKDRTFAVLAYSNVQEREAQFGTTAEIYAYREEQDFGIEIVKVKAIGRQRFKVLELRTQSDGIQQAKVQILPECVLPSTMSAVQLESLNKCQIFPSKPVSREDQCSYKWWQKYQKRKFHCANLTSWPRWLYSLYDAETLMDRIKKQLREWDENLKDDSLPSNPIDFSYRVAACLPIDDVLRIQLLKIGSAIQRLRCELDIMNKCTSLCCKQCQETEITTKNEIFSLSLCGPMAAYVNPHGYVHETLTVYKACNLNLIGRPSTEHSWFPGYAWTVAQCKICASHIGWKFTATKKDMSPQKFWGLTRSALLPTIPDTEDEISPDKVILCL

COc1cc2nc(C)nc(N[C@H](C)c3cc(N)cc(C(F)(F)F)c3)c2cc1OCCCCCCCC(=O)N[C@H](C(=O)N1C[C@H](O)C[C@H]1C(=O)NCc1ccc(-c2scnc2C)cc1)C(C)(C)C
Activity [1]: 0% | Activity [2]: 0% | Activity [3]: 0% | Activity [4]: 28.8%

CNCc1ccccc1-c1csc([C@@H](C)Nc2nc(C)nc3cc(OC)c(C4=CCN(C(=O)CCCCC(=O)N[C@H](C(=O)N5C[C@H](O)C[C@H]5C(=O)NCc5ccc(-c6scnc6C)cc5)C(C)(C)C)CC4)cc23)c1
Activity [1]: 30.2% | Activity [2]: 16.6% | Activity [3]: 28.3% | Activity [4]: 0%

CNCc1ccccc1-c1csc([C@@H](C)Nc2nc(C)nc3cc(OC)c(OCCCCCCCCC(=O)N[C@H](C(=O)N4C[C@H](O)C[C@H]4C(=O)NCc4ccc(-c5scnc5C)cc4)C(C)(C)C)cc23)c1
Activity [1]: 0% | Activity [2]: 34.7% | Activity [4]: 0%

COc1cc2nc(C)nc(N[C@H](C)c3cc(-c4ccccc4CNCCCCCC(=O)N[C@H](C(=O)N4C[C@H](O)C[C@H]4C(=O)NCc4ccc(-c5scnc5C)cc4)C(C)(C)C)cs3)c2cc1OC
Activity [1]: 11% | Activity [2]: 0% | Activity [3]: 0% | Activity [4]: 13.2%

COc1cc2nc(C)nc(N[C@H](C)c3cc(-c4ccccc4CNCCCCCCCNc4ccc5c(c4)C(=O)N(C4CCC(=O)NC4=O)C5=O)cs3)c2cc1OC (stereo partly specified)
Activity [5]: 35.4% | Activity [6]: 0% | Activity [7]: 3.4% | Activity [8]: 72.1%

CNCc1ccccc1-c1csc([C@@H](C)Nc2nc(C)nc3cc(OC)c(OCCCCCC(=O)N[C@H](C(=O)N4C[C@H](O)C[C@H]4C(=O)NCc4ccc(-c5scnc5C)cc4)C(C)(C)C)cc23)c1
Activity [1]: 0% | Activity [2]: 22.5% | Activity [3]: 0% | Activity [4]: 0%

COc1cc2nc(C)nc(N[C@H](C)c3cc(N)cc(C(F)(F)F)c3)c2cc1OCCCCCCC(=O)N[C@H](C(=O)N1C[C@H](O)C[C@H]1C(=O)NCc1ccc(-c2scnc2C)cc1)C(C)(C)C
Activity [1]: 3.4% | Activity [2]: 0% | Activity [3]: 0% | Activity [4]: 27%

COc1cc2nc(C)nc(N[C@H](C)c3cc(-c4ccccc4CNCC4CCN(C(=O)CC(=O)N[C@H](C(=O)N5C[C@H](O)C[C@H]5C(=O)NCc5ccc(-c6scnc6C)cc5)C(C)(C)C)CC4)cs3)c2cc1OC
Activity [1]: 0% | Activity [2]: 0% | Activity [3]: 0% | Activity [4]: 26%

COc1cc2nc(C)nc(N[C@H](C)c3cc(N)cc(C(F)(F)F)c3)c2cc1OCCCCCCCCC(=O)N[C@H](C(=O)N1C[C@H](O)C[C@H]1C(=O)NCc1ccc(-c2scnc2C)cc1)C(C)(C)C
Activity [1]: 21.5% | Activity [2]: 0% | Activity [3]: 0% | Activity [4]: 28.2%

COc1cc2nc(C)nc(N[C@H](C)c3cc(-c4ccccc4CNCCCN4CCC(C(=O)N[C@H](C(=O)N5C[C@H](O)C[C@H]5C(=O)NCc5ccc(-c6scnc6C)cc5)C(C)(C)C)CC4)cs3)c2cc1OC
Activity [1]: 49.8% | Activity [2]: 0% | Activity [3]: 0% | Activity [4]: 29.1%

COc1cc2nc(C)nc(N[C@H](C)c3cc(N)cc(C(F)(F)F)c3)c2cc1OCCCCCCCCCC(=O)N[C@H](C(=O)N1C[C@H](O)C[C@H]1C(=O)NCc1ccc(-c2scnc2C)cc1)C(C)(C)C
Activity [1]: 0% | Activity [2]: 0% | Activity [3]: 0% | Activity [4]: 48.3%

COc1cc2nc(C)nc(N[C@H](C)c3cc(-c4ccccc4CNCCCCCCNc4ccc5c(c4)C(=O)N(C4CCC(=O)NC4=O)C5=O)cs3)c2cc1OC (stereo partly specified)
Activity [5]: 0% | Activity [6]: 0% | Activity [7]: 0% | Activity [8]: 37.7%

CNCc1ccccc1-c1csc([C@@H](C)Nc2nc(C)nc3cc(OC)c(C4=CCN(C(=O)CCCC(=O)N[C@H](C(=O)N5C[C@H](O)C[C@H]5C(=O)NCc5ccc(-c6scnc6C)cc5)C(C)(C)C)CC4)cc23)c1
Activity [1]: 0% | Activity [2]: 2.3% | Activity [3]: 18.7% | Activity [4]: 8.4%

COc1cc2nc(C)nc(N[C@H](C)c3cc(N)cc(C(F)(F)F)c3)c2cc1OCCCCCC(=O)N[C@H](C(=O)N1C[C@H](O)C[C@H]1C(=O)NCc1ccc(-c2scnc2C)cc1)C(C)(C)C
Activity [1]: 0% | Activity [2]: 0% | Activity [3]: 0% | Activity [4]: 0%

CNCc1ccccc1-c1csc([C@@H](C)Nc2nc(C)nc3cc(OC)c(OCCCCCCCC(=O)N[C@H](C(=O)N4C[C@H](O)C[C@H]4C(=O)NCc4ccc(-c5scnc5C)cc4)C(C)(C)C)cc23)c1
Activity [1]: 14.3% | Activity [2]: 27% | Activity [4]: 0%

COc1cc2nc(C)nc(N[C@H](C)c3cc(-c4ccccc4CNCCCCCCC(=O)N[C@H](C(=O)N4C[C@H](O)C[C@H]4C(=O)NCc4ccc(-c5scnc5C)cc4)C(C)(C)C)cs3)c2cc1OC
Activity [1]: 75.1% | Activity [2]: 18.9% | Activity [3]: 80.1% | Activity [9]: Dose-Dependent Effect | DC50 [9]: 870 nM | Activity [10]: Dose-Dependent Effect | DC50 [10]: 701 nM | Activity [11]: Dose-Dependent Effect | DC50 [11]: 910 nM | Activity [4]: 44% | Activity [12]: Dose-Dependent Effect | DC50 [12]: 776 nM

COc1cc2nc(C)nc(C[C@H](C)c3cc(-c4ccccc4CNCCCCCCCCCNc4ccc5c(c4)C(=O)N(C4CCC(=O)NC4=O)C5=O)cs3)c2cc1OC (stereo partly specified)
Activity [5]: 0% | Activity [6]: 10.3% | Activity [7]: 0% | Activity [8]: 89.1%

COc1cc2nc(C)nc(N[C@H](C)c3cc(N)cc(C(F)(F)F)c3)c2cc1OCCCC(=O)N[C@H](C(=O)N1C[C@H](O)C[C@H]1C(=O)NCc1ccc(-c2scnc2C)cc1)C(C)(C)C
Activity [1]: 0% | Activity [2]: 0% | Activity [3]: 0% | Activity [4]: 0%

COc1cc2nc(C)nc(N[C@H](C)c3cc(-c4ccccc4CNCC4CCN(CC5CCN(C(=O)CC(=O)N[C@H](C(=O)N6C[C@H](O)C[C@H]6C(=O)NCc6ccc(-c7scnc7C)cc6)C(C)(C)C)CC5)CC4)cs3)c2cc1OC
Activity [1]: 19.6% | Activity [2]: 0% | Activity [3]: 0% | Activity [4]: 23%

CNCc1ccccc1-c1csc([C@@H](C)Nc2nc(C)nc3cc(OC)c(OCCCCCCC(=O)N[C@H](C(=O)N4C[C@H](O)C[C@H]4C(=O)NCc4ccc(-c5scnc5C)cc4)C(C)(C)C)cc23)c1
Activity [1]: 0% | Activity [2]: 28.1% | Activity [3]: 21.8% | Activity [4]: 0%

CNCc1ccccc1-c1csc([C@@H](C)Nc2nc(C)nc3cc(OC)c(OCCCCC(=O)N[C@H](C(=O)N4C[C@H](O)C[C@H]4C(=O)NCc4ccc(-c5scnc5C)cc4)C(C)(C)C)cc23)c1
Activity [1]: 0% | Activity [2]: 27.5% | Activity [3]: 32.9% | Activity [4]: 8.8%

COc1cc2nc(C)nc(N[C@H](C)c3cc(-c4ccccc4CNCCCCCCCCNc4ccc5c(c4)C(=O)N(C4CCC(=O)NC4=O)C5=O)cs3)c2cc1OC (stereo partly specified)
Activity [5]: 35.6% | Activity [6]: 1.3% | Activity [7]: 0% | Activity [8]: 46.7%

COc1cc2nc(C)nc(N[C@H](C)c3cc(-c4ccccc4CNCCCCCCCC(=O)N[C@H](C(=O)N4C[C@H](O)C[C@H]4C(=O)NCc4ccc(-c5scnc5C)cc4)C(C)(C)C)cs3)c2cc1OC
Activity [1]: 12.7% | Activity [2]: 27.4% | Activity [3]: 58.9% | Activity [4]: 0%

COc1cc2nc(C)nc(N[C@H](C)c3cc(-c4ccccc4CNCCCCCCCCC(=O)N[C@H](C(=O)N4C[C@H](O)C[C@H]4C(=O)NCc4ccc(-c5scnc5C)cc4)C(C)(C)C)cs3)c2cc1OC
Activity [1]: 24.4% | Activity [2]: 0% | Activity [3]: 31.6% | Activity [4]: 0%

COc1cc2nc(C)nc(N[C@H](C)c3cc(-c4ccccc4CNCCC4CCN(C(=O)CC(=O)N[C@H](C(=O)N5C[C@H](O)C[C@H]5C(=O)NCc5ccc(-c6scnc6C)cc5)C(C)(C)C)CC4)cs3)c2cc1OC
Activity [1]: 0% | Activity [2]: 0% | Activity [3]: 0% | Activity [4]: 0%

COc1cc2nc(C)nc(N[C@H](C)c3cc(N)cc(C(F)(F)F)c3)c2cc1O[C@H]1CCOC1
IC50 (MIA PaCa-2): 29 nM | IC50 (K562): 1420 nM

CNCc1ccccc1-c1csc([C@@H](C)Nc2nc(C)nc3cc(OC)c(C4=CCN(C(=O)CCC(=O)N[C@H](C(=O)N5C[C@H](O)C[C@H]5C(=O)NCc5ccc(-c6scnc6C)cc5)C(C)(C)C)CC4)cc23)c1
Activity [1]: 0% | Activity [2]: 18.9% | Activity [3]: 6.7% | Activity [4]: 5.6%

COc1cc2nc(C)nc(N[C@H](C)c3cc(-c4ccccc4CNCCCCCCCCCC(=O)N[C@H](C(=O)N4C[C@H](O)C[C@H]4C(=O)NCc4ccc(-c5scnc5C)cc4)C(C)(C)C)cs3)c2cc1OC
Activity [1]: 5.8% | Activity [2]: 0% | Activity [3]: 25.3% | Activity [4]: 0%
